{
  "source": "patent US11919855B2",
  "about": "“Substituted pyrrolidones and piperidones as small molecule inhibitors of EZH2 and EED protein binding” (Northwestern University, priority 2021, dated 2024)",
  "data": [
    {"biological_target": "EED-EZH2 (Homo sapiens (Human), UniProt O75530)", "sequence (O75530 2-441)": "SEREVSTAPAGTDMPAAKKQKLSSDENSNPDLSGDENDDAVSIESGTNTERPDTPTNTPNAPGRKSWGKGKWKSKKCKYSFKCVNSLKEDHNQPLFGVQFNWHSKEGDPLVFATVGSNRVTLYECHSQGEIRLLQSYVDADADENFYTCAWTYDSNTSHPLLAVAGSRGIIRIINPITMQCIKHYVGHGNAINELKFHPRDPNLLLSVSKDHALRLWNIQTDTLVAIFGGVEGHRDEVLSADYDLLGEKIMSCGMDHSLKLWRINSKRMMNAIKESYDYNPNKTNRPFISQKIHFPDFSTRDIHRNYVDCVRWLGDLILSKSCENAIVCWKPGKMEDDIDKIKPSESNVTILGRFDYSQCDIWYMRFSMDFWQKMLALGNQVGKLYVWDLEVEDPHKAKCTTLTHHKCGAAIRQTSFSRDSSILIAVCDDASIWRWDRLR", "assay": "EED-EZH2 AlphaScreen assay", "assay_type": "binding", "details": "8.7 nM EZH2, 5.0 nM EED, read-out: IC50 Potency Code", "protocol": "Biological activity of exemplary substituted pyrrolidones and piperidones was determined by the EED-EZH2 AlphaScreen assay according the following methodology.\nEZH2 (non-complexed), His-GST-tags\nAnti-FLAG AlphaLISA Acceptor Beads\nAlphaScreen GSH Donor Beads\nAssay Protocol (Calculated for 384 Wells or 1 Plate)\n• 1. Thaw EED and EZH2 proteins on ice. • 2. Prepare 1× HMT Buffer 2: • 1.5 mL of 4× HMT Buffer 2+4.5 mL ddH2O. • 3. Prepare 1.2× EED-EZH2 solution in 1× HMT Buffer 2: 3.4 mL total • 2.1 uL of EED (0.41 mg/mL, 8.04 uM, 1:1608 dilution)+14 uL of EZH2 (0.24 mg/mL, 2.11 uM, 1:243 dilution)+3.384 mL of 1× HMT Buffer 2 • 4. Prepare 1.2× EZH2 solution in 1× HMT Buffer 2 (positive control): 0.168 mL total • 0.69 uL of EZH2 (0.24 mg/mL, 2.11 uM, 1:243 dilution)+167 uL of 1× HMT Buffer 2 • 5. Add 10 μL of 1.2× EED-EZH2 or 1.2× EZH2 solution to each well. • 6. Add compounds in DMSO via Echo transfer and 30 nL DMSO for control wells. • 7. Centrifuge at 15,000 rpm for 10 seconds and allow to incubate at rt for 1 hour. Step Two • 1. Prepare 6× Anti-FLAG and GSH Donor beads in 1× HMT Buffer 2 in the dark: 1 mL total • 10 uL of Anti-FLAG (1:100 dilution)+5 uL of GSH Donor (1:200 dilution)+985 uL of 1× HMT Buffer 2 • 2. Add 2 μL of bead solution to each well. • 3. Centrifuge at 15,000 rpm for 10 seconds and allow to incubate at rt for 1 hour in the dark. • 4. Read plate. Final Concentrations: • 12 μL volume per well • 8.7 nM EZH2 • 5.0 nM EED • DMSO<0.5% Calculations: • 1. Average EZH2 only wells (positive control) and subtract from all other wells. • 2. Average EED-EZH2 only wells (negative control) to indicate 100% signal or 0% inhibition. • 3. Normalize each well to the average 100% signal from step 2. • 4. Report either as normalized % inhibition or normalized % signal. • Use GraphPad to Calculate IC50.", "units": {"IC50": "µM"}, "values": [
      {"smiles": "O=C(NC1CC(=O)N(Cc2cccc(C(F)(F)F)c2)C1)c1cc(C(F)(F)F)ccc1O", "note": "(stereo not shown) [NUCC-0223625]", "IC50": "< 1"},
      {"smiles": "Cc1ccc(O)c(C(=O)NC2CC(=O)N(Cc3ccc(Cl)c(Cl)c3)C2)c1", "note": "(stereo not shown) [NUCC-0202672]", "IC50": "10 to 50"},
      {"smiles": "Cc1ccc(C(=O)NC2CC(=O)N(Cc3ccccc3C(F)(F)F)C2)c(O)c1", "note": "(stereo not shown) [NUCC-0202750]", "IC50": "> 50"},
      {"smiles": "Cc1ccc(O)c(C(=O)Nc2ccc(=O)n(Cc3ccccc3C(F)(F)F)c2)c1", "note": "[NUCC-0202969]", "IC50": "> 50"},
      {"smiles": "O=C(NC1CC(=O)N(Cc2ccc(Cl)c(Cl)c2)C1)c1ccccc1O", "note": "(stereo not shown) [NUCC-0202674]", "IC50": "> 50"},
      {"smiles": "O=C(NC1CC(=O)N(Cc2ccccc2C(F)(F)F)C1)c1ccc(Cl)c(Cl)c1", "note": "(stereo not shown) [NUCC-0202670]", "IC50": "> 50"},
      {"smiles": "O=C1CC(Nc2ncnc3ccc(C(F)(F)F)cc23)CN1Cc1ccccc1C(F)(F)F", "note": "(stereo not shown) [NUCC-0223632]", "IC50": "> 50"},
      {"smiles": "O=C(NC1CC(=O)N(Cc2ccccc2C(F)(F)F)C1)c1ccc2ccccc2n1", "note": "(stereo not shown) [NUCC-0202758]", "IC50": "> 50"},
      {"smiles": "O=C(O)c1ccccc1C(=O)NC1CC(=O)N(Cc2ccc(Cl)c(Cl)c2)C1", "note": "(stereo not shown) [NUCC-0202676]", "IC50": "> 50"},
      {"smiles": "O=C(NC1CC(=O)N(Cc2ccccc2C(F)(F)F)C1)c1ccnc(Cl)n1", "note": "(stereo not shown) [NUCC-0202757]", "IC50": "> 50"},
      {"smiles": "O=C(NC1CC(=O)N(Cc2ccccc2C(F)(F)F)C1)c1ccccc1F", "note": "(stereo not shown) [NUCC-0202763]", "IC50": "> 50"},
      {"smiles": "Cc1cccc(C(=O)NC2CC(=O)N(Cc3ccc(Cl)c(Cl)c3)C2)c1", "note": "(stereo not shown) [NUCC-0202678]", "IC50": "> 50"},
      {"smiles": "O=C(NC1CC(=O)N(Cc2ccccc2C(F)(F)F)C1)c1cc(Cl)ccc1O", "note": "(stereo not shown) [NUCC-0202833]", "IC50": "1 to 10"},
      {"smiles": "O=C(NC1CCC(=O)N(Cc2ccccc2C(F)(F)F)C1)c1cc(Cl)ccc1O", "note": "(stereo not shown) [NUCC-0223819]", "IC50": "1 to 10"},
      {"smiles": "Cc1ccc(O)c(S(=O)(=O)NC2CC(=O)N(Cc3ccccc3C(F)(F)F)C2)c1", "note": "(stereo not shown) [NUCC-0202835]", "IC50": "> 50"},
      {"smiles": "O=C(NC1CC(=O)N(Cc2ccccc2C(F)(F)F)C1)c1ccc2cc[nH]c2c1", "note": "(stereo not shown) [NUCC-0202671]", "IC50": "> 50"},
      {"smiles": "Cc1ccc(O)c(C(=O)N(C)C2CC(=O)N(Cc3ccccc3C(F)(F)F)C2)c1", "note": "(stereo not shown) [NUCC-0202747]", "IC50": "> 50"},
      {"smiles": "O=C1CCC(Nc2ncnc3ccc(C(F)(F)F)cc23)CN1Cc1ccccc1C(F)(F)F", "note": "(stereo not shown) [NUCC-0223826]", "IC50": "> 50"},
      {"smiles": "COC(=O)c1ccccc1CN1CC(NC(=O)c2cc(C)ccc2O)CC1=O", "note": "(stereo not shown) [NUCC-0202967]", "IC50": "1 to 10"},
      {"smiles": "O=C(NC[C@@H]1CCC(=O)N1Cc1cccc(C(F)(F)F)c1)c1cc(C(F)(F)F)ccc1O", "note": "[NUCC-0226241]", "IC50": "1 to 10"},
      {"smiles": "Cc1ccc(O)c(C(=O)NC2CC(=O)N(Cc3ccccc3C(=O)O)C2)c1", "note": "(stereo not shown) [NUCC-0202966]", "IC50": "1 to 10"},
      {"smiles": "O=C(NC1CC(=O)N(Cc2ccccc2C(F)(F)F)C1)c1cnon1", "note": "(stereo not shown) [NUCC-0202755]", "IC50": "> 50"},
      {"smiles": "O=C(NC1CC(=O)N(Cc2ccccc2C(F)(F)F)C1)c1cccc(-c2ccccc2)c1", "note": "(stereo not shown) [NUCC-0202667]", "IC50": "> 50"},
      {"smiles": "O=C(NC1CC(=O)N(Cc2ccccc2C(F)(F)F)C1)c1coc2ccccc12", "note": "(stereo not shown) [NUCC-0202760]", "IC50": "> 50"},
      {"smiles": "O=C(NC1CC(=O)N(Cc2ccccc2C(F)(F)F)C1)c1cc(I)ccc1O", "note": "(stereo not shown) [NUCC-0202852]", "IC50": "10 to 50"},
      {"smiles": "O=C(NCC1CCC(=O)N1Cc1cccc(C(F)(F)F)c1)c1cc(C(F)(F)F)ccc1O", "note": "(stereo not shown) [NUCC-0226240]", "IC50": "1 to 10"},
      {"smiles": "O=C(NC[C@H]1CC(=O)N(Cc2cccc(F)c2)C1)c1cc(C(F)(F)F)ccc1O", "note": "[NUCC-0226243]", "IC50": "< 1"},
      {"smiles": "Cc1cccc(C(=O)NC2CC(=O)N(Cc3ccccc3C(F)(F)F)C2)c1", "note": "(stereo not shown) [NUCC-0202668]", "IC50": "> 50"},
      {"smiles": "Cc1c(C(=O)NC2CC(=O)N(Cc3ccccc3[N+](=O)[O-])C2)cccc1[N+](=O)[O-]", "note": "(stereo not shown) [NUCC-0202656]", "IC50": "> 50"},
      {"smiles": "Cc1ccc(O)c(C(=O)NC2CC(=O)N(Cc3ccccc3C(F)(F)F)C2)c1", "note": "(stereo not shown) [NUCC-0202826]", "IC50": "> 50"},
      {"smiles": "CC1(C)C(=O)N(Cc2ccccc2C(F)(F)F)C[C@H]1NC(=O)c1cc(C(F)(F)F)ccc1O", "note": "[NUCC-0223626]", "IC50": "1 to 10"},
      {"smiles": "O=C(N[C@H]1CCN(Cc2cccc(C(F)(F)F)c2)C1=O)c1cc(C(F)(F)F)ccc1O", "note": "[NUCC-0226238]", "IC50": "1 to 10"},
      {"smiles": "O=C1C(Nc2ncnc3ccc(C(F)(F)F)cc23)CCN1Cc1ccccc1C(F)(F)F", "note": "(stereo not shown) [NUCC-0223825]", "IC50": "> 50"},
      {"smiles": "O=C(O)c1ccccc1C(=O)NC1CC(=O)N(Cc2ccccc2C(F)(F)F)C1", "note": "(stereo not shown) [NUCC-0202666]", "IC50": "> 50"},
      {"smiles": "Cc1ccc(O)c(C(=O)N[C@H]2CC(=O)N(Cc3ccc(Cl)c(Cl)c3)C2)c1", "note": "[NUCC-0202975]", "IC50": "10 to 50"},
      {"smiles": "Cc1ccc(O)c(C(=O)N[C@@H]2CC(=O)N(Cc3ccc(C(F)(F)F)cc3)C2)c1", "note": "[NUCC-0202978]", "IC50": "> 50"},
      {"smiles": "COc1ccc(O)c(C(=O)NC2CC(=O)N(Cc3ccccc3C(F)(F)F)C2)c1", "note": "(stereo not shown) [NUCC-0202831]", "IC50": "10 to 50"}
    ]}
  ]
}
